Here are results for one substance from US10139394B2, “Method for controlling cancer metastasis or cancer cell migration by modulating the cellular level of lysyl tRNA synthetase” (Medicinal Bioconvergence Research Center, priority 2008, dated 2018).

Assay [1] has as its system membrane translocation of KRS. Description: Laminin-dependent membrane translocation of KRS and 67LR, cell fractionation and Western blotting. The class given is cell-based. Particulars: A549 cells; laminin 10 ug/ml, time course; FIG. 7. As for the experimental part:
In FIG. 7, A549 cells were treated with laminin (10 ug/ml) and the level of 67LR, 37LRP and KRS was determined by Western blotting at the indicated times. Hsp90 and Cadherin were used as markers for cytoplasm and membrane, respectively. In FIG. 8, A549 cells untreated or treated with laminin for 1 h were subjected to immunofluorescence staining with anti-67LR (MLuC5, Santacruz, sc-59732) (red) and -KRS antibodies (green). In FIG. 9, A549 cells were treated with U73122 (U), staurosporin (ST) and LY294002 (LY) that inhibit PLC-gamma, PKC and PI3K, respectively, for 3 hr, then with laminin for 1 hr and checked how these kinase inhibitors would affect the membrane and cytoplasmic level of 67LR and KRS. In FIG. 10, A549 cells were transfected with Myc-KRS and incubated for 24 h. The cells were treated with the indicated chemicals and then with laminin as above. Myc-KRS was immunoprecipitated, and immunoblotted with anti-p-Thr, -Ser, and -Tyr antibodies. In FIG. 11, A549 cells were transfected with Myc-KRS and cultivated for 24 hr. The transfectants were pre-treated with LY294002 for 3 hr and then treated with laminin for 1 h. Myc-KRS was immunoprecipitated and co-precipitation of 67LR was determined by Western blotting. IgG was used as a control for immunoprecipitation. In FIG. 12, A549 cells were cultivated in the absence and presence of laminin and LY294002 as indicated. EPRS (glutamyl-prolyl-tRNA synthetase) was immunoprecipitated with its specific antibody (AbCam), and co-immunoprecipitation of KRS was determined by Western blotting (upper). The immune-depleted supernatant (ID) were subjected to Western blottingting with anti-KRS and -EPRS antibodies.
The cells were lysed with 20 mM Tris-HCl (pH 7.4) buffer containing 150 mM NaCl, 0.5% TritonX-100, 0.1% SDS, and protease inhibitor. The protein extracts were incubated with normal IgG and protein G agarose for 2 hr and then centrifuged to remove nonspecific IgG binding proteins. […]

Assay [2] deals with 67LR. Description: 67LR level in membrane and cytoplasm of A549 cells (Western blotting, flow cytometry). The class given is cell-based. The settings on record: membrane fraction, FIG. 13. As to the method:
In FIG. 13, A549 cells were transfected with si-control or si-KRS and incubated in the absence and presence of laminin. The cells were then separated to cytoplasm and membrane fractions, and the levels of 67LR and KRS in each fraction were determined by Western blotting. Cadherin (cad) and hsp90 were used as the markers for plasma membrane and cytoplasm, respectively. In FIG. 14, the membrane-bound 67LR level in A549 cells was monitored by flow cytometry using anti-LR antibody (MLuC5). The cells were transfected with empty vector or KRS plasmid and incubated for 24 h (upper). […] In FIG. 15, A549 cells transfected with EV or KRS was selected with G418 for a week and cellular distribution of 67LR was determined by immunofluorescence staining with anti-LR antibody (MLuC5). […] In FIG. 16, A549 cells were treated with cycloheximide to inhibit de novo protein synthesis and the effect of KRS levels on 67LR level in membrane and cytoplasm was determined by Western blotting. In FIG. 17, the importance of KRS for cellular stability of 67LR was determined by pulse-chase experiment. […]
To address cell cycle, the cultivated cells were transfected or treated with the indicated vector or chemicals, fixed with 70% ethanol for 1 hr at 4° C. and washed with ice-cold PBS two times. […] For each sample, 20,000 cells were analyzed using Cell Quest Pro software. […]
On the technique in general: A western blot detects proteins with antibodies after separation by electrophoresis.

Take “laminin: laminin (Engelbreth-Holm-Swarm murine sarcoma) from Sigma”: the “membrane level of KRS and 67LR” value in assay [1] is given as “gradually increased”. For the same substance, in assay [2], the 67LR level entry is on record as “increased”.
